Reference: US7557215B2, “Anthraquinone compounds as anti cancer compounds” (Somanta Limited, priority 2003, dated 2009)

How the values were obtained:
A2780/cp70 = assay: Inhibition of cell growth, cisplatin resistant A2780/cp70 cell line; type: cell-based, human; conditions: text b280, b283
[1] = system: human ovarian tumour xenograft (A2780); assay: Tumour doubling time, human ovarian tumour xenograft A2780 in mice; type: in vivo; conditions: 16 mg/kg i.p.
Excerpt: (§1) Compound HAQ71, with the lowest RF (0.2) of the panel of compounds tested against the cisplatin resistant cells and its chloropropyl-substituted analogue, was selected for in vivo investigation in mice using tumour A2780 and A2780/cp70 cells grown as xenografts in mice. Significant anticancer activity in vivo of HAQ71 and CAQ75 was shown; both compounds exerting similar tumour growth delay in human xenografted wild-type and acquired cisplatin resistant tumours (A2780/cp70). The latter is very refractory to cisplatin and other covalent binding agents and has been characterised with elevated levels of glutathione, alterations in drug uptake/efflux and DNA repair mechanisms including mismatch repair deficiency.

[2] = system: cisplatin resistant variant (A2780/cp70) xenograft; assay: Tumour doubling time, cisplatin resistant variant xenograft A2780/cp70 in mice; type: in vivo; conditions: 16 mg/kg i.p.
Excerpt: as §1

A2780 [3] = assay: Inhibition of cell growth, A2780 wild type ovarian carcinoma cell line
A2780 [4] = system: A2780

Compound	RF against the cisplatin resistant cells (A2780/cp70)	doubling time (days) of tumour xenograft [1]	tumour doubling time, percent [1]	doubling time (days) of tumour xenograft [2]	tumour growth delay (%) [2]	fold decrease in cytotoxicity on substitution of OH with Cl (HAQ71 vs CAQ75) (A2780 [3]; CAQ75 compared with HAQ71)	cytotoxicity ratio (CR=IC50 of alkylaminoanthraquinone-di-N-oxide/IC50 alkylaminoanthraquinone) (A2780 [4])	IC50 (A2780 [3]; read-out: Growth Inhibition (IC50) A2780, A2780, Table 4)
CN(C)CCNc1ccc(NCCN2CCCCC2CCl)c2c1C(=O)c1c(O)ccc(O)c1C2=O (centres unmarked) [CAQ75, 1-{[2-(2-Chloromethylpiperidin-1-yl)ethyl]amino}-4-{[(2-dimethylamino)ethyl]amino}-5,8-dihydroxyanthracene-9,10-dione]	0.4	5.83 ± 0.40 days	198%	4.18 ± 0.27 days	166%	> 10 fold		
C[N+](C)([O-])CCNc1ccc(NCC[N+](C)(C)[O-])c2c1C(=O)c1c(O)ccc(O)c1C2=O [AQ4N]							17,000	> 100 µM
